We go through one compound from patent publication US12594252B2, “Methods for treating inflammatory skin conditions” (JOURNEY MEDICAL CORPORATION, priority 2018, dated 2026).

The structures appear in SMILES notation.

This assay relates to subjects diagnosed with papulopustular rosacea. Put plainly: 16-week, multi-center, randomized, double-blind, parallel-group, controlled efficacy study. To be noted: minocycline about 40 mg, equivalent doses. It counts as in vivo, human. As to the method: The pharmaceutical compositions as shown in Example 1 and 3 were studied in a 16-week, multi-center, randomized, double-blind, parallel-group, controlled study to evaluate efficacy. Subjects, who were at least 18 years old, diagnosed with papulopustular rosacea were randomized to 4 different treatment groups (50 subjects each in groups 1 to 4). Each subject was allocated to one of the treatment groups, receiving a single dose of Example 1 (Group 1) and Example 3 (Group 2): […]®-40 mg doxycycline capsules (Group 3); and placebo capsules (Group 4), orally for 16 weeks. Subjects' visits were scheduled at screening, baseline (day 1), and weeks 4, 8, 12 and 16. Clinical assessments of efficacy was conducted based on, proportion of subjects with IGA 'treatment success (reduction in IGA grade)' and reduction in total inflammatory lesion count (sum of papules, pustules, and nodules) from baseline (day 1) to weeks 4, 8, 12 and 16. The results are shown in following table 9 (IGA 'treatment success), table 10 (total inflammatory lesion change), table 11 (P values) and FIG. 6, FIG. 7, FIG. 8.

Regarding `CN(C)c1ccc(O)c2c1C[C@H]1C[C@H]3[C@H](N(C)C)C(O)=C(C(N)=O)C(=O)[C@@]3(O)C(O)=C1C2=O` [minocycline, [4S-(4α,4aα,5aα,12aα)]-4,7-Bis(dimethylamino)-1,4,4a,5,5a,6,11,12a-octahydro-3,10,12,12a-tetrahydroxy-1,11-dioxo-2-naphthacenecarboxamide], the “% reduction in lesion counts, more as compared to doxycycline (40 mg)” value is given as “about 100%”.
